In patent US6946458B2, “N-thiolated beta-lactams: novel antibacterial agents for methicillin-resistant Staphylococcus aureus” (University of South Florida, priority 1999, dated 2005):
Like-named read-outs stand apart in the source and are kept apart here.

Key:
[1] = test system: MRSA strains; assay: MIC by agar dilution; assay type: cell-based, Staphylococcus aureus; conditions: Staphylococcus aureus, MRSA, read-out: Minimum inhibitory concentration (MIC)
Excerpt: However, the N-alkylthio substituent is required, since reduction to the N—H analogue completely destroys the biological activity.

[2] = test system: MRSA cells; assay: light microscopy after Gram staining; assay type: cell-based, Staphylococcus aureus
Excerpt: (§1) In fact, only small isolated colonies of surviving cells can be found, all of which appear perfectly normal in size, shape, smoothness, and clustering behavior. […] Pulse radiolabeling experiments indicate that the lactam of FIG. 1D blocks the bacterial uptake of ^3H-uridine and ^3H-leucine at low (MIC) levels (Lim, D. V. et al. Microbiology, 1977, 33:328; Champney, W. S. and C. G. Tober Antimicrob. Agents and Chemother., 2000, 44:1413).
(FIGS. 14A-14C) S. aureus is a Gram-positive microorganism, and thus reacts with Gram stain to produce a purple coloration due to binding of the stain to the peptidoglycan. 100% of MRSA cells grown either in the absence or presence of the lactam of FIG. 11F take on a purple color when Gram stained (top and center images, next page). In contrast, for MRSA cells treated with penicillin G or vancomycin (cell wall synthesis inhibitors), only about 30% of the cells are Gram-stained purple, with the remainder of the cells appearing pink (bottom image, next page) due to morphologically altered walls. This is strong evidence that the N-methylthio lactams are not affecting late stage events in cell wall biosynthesis.

[3] = test system: MRSA USF652; assay: Kirby-Bauer agar disk diffusion; assay type: cell-based, Staphylococcus aureus; parameters: Kirby-Bauer Disc Diffusion Test Results: unit not given here; conditions: for zone of inhibition at 20 µg/disc: Staphylococcus aureus, MRSA
Summary of the method: (§2)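 Kirby-Bauer disk diffusion on agar with 6-mm air-dried disks carrying 20 μg compound against β-lactamase-producing MRSA clinical isolates. Values are mean inhibition-zone diameters (mm, triplicate) read after 24 h.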

[4] = test system: MRSA USF654; assay: Kirby-Bauer agar disk diffusion; assay type: cell-based, Staphylococcus aureus; parameters: Kirby-Bauer Disc Diffusion Test Results: unit not given here; conditions: for zone of inhibition at 20 µg/disc: Staphylococcus aureus, MRSA
Summary of the method: as §2

[5] = test system: MRSA USF655; assay: Kirby-Bauer agar disk diffusion; assay type: cell-based, Staphylococcus aureus; parameters: Kirby-Bauer Disc Diffusion Test Results: unit not given here; conditions: for zone of inhibition at 20 µg/disc: Staphylococcus aureus, MRSA
Summary of the method: as §2

[6] = test system: cultures of S. aureus and MRSA; assay: electron microscopy of cell morphology; assay type: cell-based, Staphylococcus aureus; conditions: Example 1; electron microscopy, high magnification
Excerpt: The structure-bioactivity patterns observed for these N-thiolated lactams are highly atypical for a β-lactam antibiotic. The compounds are lipohilic and devoid of the typical acidic ring functionality required for recognition by the penicillin binding proteins. The implication that the lactams set forth in FIGS. 1A-1I are not acting in the same manner or on the same enzymes as the traditional β-lactam drugs is supported by electron microscopy experiments, which confirm that cell morphology is unaffected by the lactam of FIG. 1D (Greenwood, D. et al. Science, 1969, 163:1076).
as §1
Light microscopy and scanning electron microscopy experiments have enabled us to look for cell wall damage in cultures of S. aureus and MRSA grown in the presence of N-methylthio lactam (FIG. 11F) over a range of different concentrations and cell growth conditions. […] Those cells that survive the treatment appear normal (coccal) and fully mature.

[7] = test system: S. saprophyticus (ATCC 3552); assay: Kirby-Bauer agar disk diffusion; assay type: cell-based, Staphylococcus saprophyticus; conditions: 6-mm disks, 20 μg test compound
Summary of the method: (§3)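 Agar disk diffusion used 6-mm air-dried disks carrying 20 μg of compound. Values are mean diameters (mm) of the growth-inhibition zone at 24 h, from triplicate experiments. S. epidermidis and S. simulans were clinical isolates.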

[8] = test system: S. simulans (ATCC 11631); assay: Kirby-Bauer agar disk diffusion; assay type: cell-based, Staphylococcus simulans; conditions: 6-mm disks, 20 μg test compound
Summary of the method: as §3

[9] = Table 1, 6-mm disks, 20 μg test compound, 24 h, triplicate, read-out: zone of growth inhibition, average diameter
[10] = Table 4, 20 μg disk loading, read-out: Zones of Inhibition
[11] = Table 6, 20 μg disk loading, read-out: The Zone of Inhibition
[12] = Table 3, 6-mm disks, 20 μg test compound, 24 hours
[13] = Table 5, beta-lactamase producing strain

With `CC1(C)S[C@@H]2[C@H](NC(=O)Cc3ccccc3)C(=O)N2[C@H]1C(=O)O` [PenG, penicillin G, reference compound] the MIC [1] was greater than 64 µg/mL, the “coloration upon Gram staining” value ([2]; Example 1) was “pink coloration” and the “cells Gram-stained purple” value ([2]; Example 5, MRSA cells grown in presence of the substance) was “about 30%”. The zone of inhibition at 20 µg/disc [3, 9] was 8 mm, the zone of inhibition at 20 µg/disc [3, 10] was 8 mm and the zone of inhibition at 20 µg/disc [3, 11] was 8 mm. The “zone of growth inhibition, average diameter” value (“zone of growth inhibition” for short) [3, 12] was 8 mm, the “Kirby-Bauer Disc Diffusion Test Results” value [3, 13] was 8 and the zone of inhibition at 20 µg/disc [4, 9] was 10 mm. The zone of inhibition at 20 µg/disc [4, 10] was 9 mm, the zone of inhibition at 20 µg/disc [4, 11] was 9 mm and the “zone of growth inhibition” value [4, 12] was 10 mm. For the same compound, the “Kirby-Bauer Disc Diffusion Test Results” value [4, 13] was 10, the zone of inhibition at 20 µg/disc [5, 9] was 14 mm and the zone of inhibition at 20 µg/disc [5, 10] was 14 mm. The zone of inhibition at 20 µg/disc [5, 11] was 13 mm, the “zone of growth inhibition” value [5, 12] was 14 mm and the “Kirby-Bauer Disc Diffusion Test Results” value ([5]; Table 5) was 13. The cell morphology [6] was “wrinkled, deformed, or even sheared”, the zone of inhibition at 20 µg/disc ([7]; Staphylococcus saprophyticus, ATCC3552, Table 1, 24 h, triplicate, read-out: zone of growth inhibition, average diameter) was 30 mm and the “zone of growth inhibition” value ([7]; Table 3, 24 hours) was 30 mm. The zone of inhibition at 20 µg/disc ([8]; Staphylococcus simulans, ATCC11631, Table 1, 24 h, triplicate, read-out: zone of growth inhibition, average diameter) was 13 mm and the “zone of growth inhibition” value ([8]; Table 3, 24 hours) was 13 mm.
